Reference: article PMC3449313 (Peptides, 2012)

Experiments:
[1] = tested on: D. melanogaster adult gut; assay: adult gut contraction; type: in vivo, Drosophila melanogaster; details: 0.1 nM; without PI; relative to the effect of DMS; mean
[2] = tested on: D. melanogaster pupal heart (white prepupae); type: in vivo, Drosophila melanogaster; details: 1 uM; without PI; relative to the effect of DMS; mean

For VFLRFamide [[6-10]DMS], the “% Inhibition Adult gut (without protease inhibitor)” value [1] was 78% and the “% Inhibition Pupal heart (without protease inhibitor)” value [2] was 103%.
